According to US20240083857A1, “2-Methyl-Quinazolines” (Bayer Pharma Aktiengesellschaft, priority 2017, published 2024):

Tests used:
[1] = biological target: human SOS1 (nucleotide exchange of K-Ras^G12C) (Homo sapiens, UniProt Q07889); assay: Biochemical assay 2: K-Ras^G12C activation assay by hSOS1 at high GTP concentration (HTRF); conditions: high GTP; for IC50: read-out: Assay 2 (KRAS-Activation by SOS high GTP) activity expressed as IC50
[2] = biological target: human SOS1 (loading of human K-Ras^G12C-GDP with fluorescent GTP-analog) (Homo sapiens, UniProt Q07889); assay: Biochemical assay 3: K-Ras^G12C activation assay by hSOS1 (HTRF); conditions: no GTP; for IC50: read-out: Assay 3 (KRAS-Activation by SOS no GTP) activity expressed as IC50; for inhibition at 20 µM: read-out: Assay 3 (KRAS-Activation by SOS no GTP) activity expressed as % inhibition at 20 μM
[3] = biological target: K-Ras^G12C : hSOS1 interaction (Homo sapiens, UniProt Q07889); assay: Biochemical assay 1: K-Ras^G12C interaction assay with hSOS1 (HTRF); format: binding; conditions: read-out: Assay 1 (KRAS-SOS Interaction) activity expressed as IC50

Row | Structure (SMILES) | IC50 [1] | IC50 [2] | IC50 [3] | inhibition at 20 µM [2] | inhibition at 20 µM ([1]; read-out: Assay 2 (KRAS-Activation by SOS high GTP) activity expressed as % inhibition at 20 μM, at 20 μM)
1 | COc1cc2nc(C)nc(N[C@H](C)c3cccc(-c4cc(N)ccc4C)c3)c2cc1OC [Example 36, N-[(1R)-1-(5′-amino-2′-methylbiphenyl-3-yl)ethyl]-6,7-dimethoxy-2-methylquinazolin-4-amine] | 1000 nM | 696 nM | 542 nM | – | –
2 | COc1cc2nc(C)nc(N[C@H](C)c3cccc(-c4cncnc4)c3)c2cc1OC [Example 37, 6,7-dimethoxy-2-methyl-N-{(1R)-1-[3-(pyrimidin-5-yl)phenyl]ethyl}quinazolin-4-amine] | 1850 nM | 2690 nM | 1540 nM | – | –
3 | COc1cc2nc(C)nc(N[C@H](C)c3cccc(-c4cccc5cnccc45)c3)c2cc1OC [Example 39, N-{(1R)-1-[3-(isoquinolin-5-yl)phenyl]ethyl}-6,7-dimethoxy-2-methylquinazolin-4-amine] | 1830 nM | 3050 nM | 1460 nM | – | –
4 | COc1cc2nc(C)nc(N[C@H](C)c3cccc(-c4c(F)ccc(C)c4Cl)c3)c2cc1OC [Example 40, N-[(1R)-1-(2′-chloro-6′-fluoro-3′-methylbiphenyl-3-yl)ethyl]-6,7-dimethoxy-2-methylquinazolin-4-amine] | 1750 nM | 4550 nM | 3850 nM | – | –
5 | COc1cc2nc(C)nc(N[C@H](C)c3cccc(-c4cncc(C)c4)c3)c2cc1OC [Example 41, 6,7-dimethoxy-2-methyl-N-{(1R)-1-[3-(5-methylpyridin-3-yl)phenyl]ethyl}quinazolin-4-amine] | 1400 nM | 1670 nM | 972 nM | – | –
6 | COc1cc2nc(C)nc(N[C@H](C)c3cccc(-c4cccc(-c5nnc(C)o5)c4)c3)c2cc1OC [Example 55, 6,7-dimethoxy-2-methyl-N-{(1R)-1-[3′-(5-methyl-1,3,4-oxadiazol-2-yl)biphenyl-3-yl]ethyl}quinazolin-4-amine] | 629 nM | 724 nM | 674 nM | – | –
7 | COc1cc2nc(C)nc(N[C@H](C)c3cccc(-c4cncc(S(C)(=O)=O)c4)c3)c2cc1OC [Example 56, 6,7-dimethoxy-2-methyl-N-[(1R)-1-{3-[5-(methylsulfonyl)pyridin-3-yl]phenyl}ethyl]quinazolin-4-amine] | 1790 nM | 2560 nM | 1470 nM | – | –
8 | COc1cc2nc(C)nc(N[C@H](C)c3cccc(-c4ccc5c(c4)CC(=O)N5)c3)c2cc1OC [Example 57, 5-(3-{(1R)-1-[(6,7-dimethoxy-2-methylquinazolin-4-yl)amino]ethyl}phenyl)-1,3-dihydro-2H-indol-2-one] | 401 nM | 629 nM | 414 nM | – | –
9 | COc1cc2nc(C)nc(N[C@H](C)c3cccc(C4CC4(C)C)c3)c2cc1OC (stereo partly drawn) [Example 58, N-{(1R)-1-[3-(2,2-dimethylcyclopropyl)phenyl]ethyl}-6,7-dimethoxy-2-methylquinazolin-4-amine] | 1640 nM | 3110 nM | 1770 nM | – | –
10 | COc1cc2nc(C)nc(N[C@H](C)c3cccc(-c4ccc(-c5nnc(C)o5)cc4)c3)c2cc1OC [Example 59, 6,7-dimethoxy-2-methyl-N-{(1R)-1-[4′-(5-methyl-1,3,4-oxadiazol-2-yl)biphenyl-3-yl]ethyl}quinazolin-4-amine] | 770 nM | 965 nM | 1590 nM | – | –
11 | COc1cc2nc(C)nc(N[C@H](C)c3cccc(-c4cnc5[nH]ccc5c4)c3)c2cc1OC [Example 60, 6,7-dimethoxy-2-methyl-N-{(1R)-1-[3-(1H-pyrrolo[2,3-b]pyridin-5-yl)phenyl]ethyl}quinazolin-4-amine] | 448 nM | 1040 nM | 585 nM | – | –
12 | COc1cc2nc(C)nc(N[C@H](C)c3cccc(-c4cccc(S(N)(=O)=O)c4)c3)c2cc1OC [Example 61, 3′-{(1R)-1-[(6,7-dimethoxy-2-methylquinazolin-4-yl)amino]ethyl}biphenyl-3-sulfonamide] | 717 nM | 895 nM | 374 nM | – | –
13 | COc1cc2nc(C)nc(N[C@H](C)c3cccc(-c4cnc(N)nc4)c3)c2cc1OC [Example 62, N-{(1R)-1-[3-(2-aminopyrimidin-5-yl)phenyl]ethyl}-6,7-dimethoxy-2-methylquinazolin-4-amine] | 2770 nM | 2630 nM | 1260 nM | – | –
14 | COc1cc2nc(C)nc(N[C@H](C)c3cccc(/C=C/C4CC4)c3)c2cc1OC [Example 63, N-[(1R)-1-{3-[(E)-2-cyclopropylethenyl]phenyl}ethyl]-6,7-dimethoxy-2-methylquinazolin-4-amine] | 1800 nM | 1880 nM | 1130 nM | – | –
15 | CCOCc1ccccc1-c1cccc([C@@H](C)Nc2nc(C)nc3cc(OC)c(OC)cc23)c1 [Example 64, N-{(1R)-1-[2′-(ethoxymethyl)biphenyl-3-yl]ethyl}-6,7-dimethoxy-2-methylquinazolin-4-amine] | 1960 nM | 2210 nM | 1400 nM | – | –
16 | COc1cc(F)cc(-c2cccc([C@@H](C)Nc3nc(C)nc4cc(OC)c(OC)cc34)c2)c1 [Example 65, N-[(1R)-1-(3′-fluoro-5′-methoxybiphenyl-3-yl)ethyl]-6,7-dimethoxy-2-methylquinazolin-4-amine] | 8340 nM | 13500 nM | 5760 nM | – | –
17 | COc1ccc2oc(-c3cccc([C@@H](C)Nc4nc(C)nc5cc(OC)c(OC)cc45)c3)cc2c1 [Example 66, 6,7-dimethoxy-N-{(1R)-1-[3-(5-methoxy-1-benzofuran-2-yl)phenyl]ethyl}-2-methylquinazolin-4-amine] | 4550 nM | 6600 nM | 3460 nM | – | –
18 | CCCCOc1cccc(F)c1-c1cccc([C@@H](C)Nc2nc(C)nc3cc(OC)c(OC)cc23)c1 [Example 67, N-[(1R)-1-(2′-butoxy-6′-fluorobiphenyl-3-yl)ethyl]-6,7-dimethoxy-2-methylquinazolin-4-amine] | 19600 nM | – | 9980 nM | 54% | –
19 | COc1cc2nc(C)nc(N[C@H](C)c3cccc(-c4ccc(C(C)(C)C#N)cc4)c3)c2cc1OC [Example 69, 2-(3′-{(1R)-1-[(6,7-dimethoxy-2-methylquinazolin-4-yl)amino]ethyl}biphenyl-4-yl)-2-methylpropanenitrile] | 5410 nM | 9070 nM | 3920 nM | – | –
20 | COc1cc2nc(C)nc(N[C@H](C)c3cccc(-c4cccc(CNS(C)(=O)=O)c4)c3)c2cc1OC [Example 71, N-[(3′-{(1R)-1-[(6,7-dimethoxy-2-methylquinazolin-4-yl)amino]ethyl}biphenyl-3-yl)methyl]methanesulfonamide] | 643 nM | 680 nM | 393 nM | – | –
21 | COc1cc2nc(C)nc(N[C@H](C)c3cccc(-c4ccc(CNS(C)(=O)=O)cc4)c3)c2cc1OC [Example 72, N-[(3′-{(1R)-1-[(6,7-dimethoxy-2-methylquinazolin-4-yl)amino]ethyl}biphenyl-4-yl)methyl]methanesulfonamide] | 666 nM | 882 nM | 737 nM | – | –
22 | CCCNC(=O)c1ccc(-c2cccc([C@@H](C)Nc3nc(C)nc4cc(OC)c(OC)cc34)c2)cc1 [Example 73, 3′-{(1R)-1-[(6,7-dimethoxy-2-methylquinazolin-4-yl)amino]ethyl}-N-propylbiphenyl-4-carboxamide] | 554 nM | 495 nM | 427 nM | – | –
23 | COc1cc2nc(C)nc(N[C@H](C)c3cccc(-c4ccc(C(=O)NCCN(C)C)cc4)c3)c2cc1OC [Example 74, 3′-{(1R)-1-[(6,7-dimethoxy-2-methylquinazolin-4-yl)amino]ethyl}-N-[2-(dimethylamino)ethyl]biphenyl-4-carboxamide] | 223 nM | 261 nM | 149 nM | – | –
24 | COc1cc2nc(C)nc(N[C@H](C)c3cccc(-c4ccn[nH]4)c3)c2cc1OC [Example 75, 6,7-dimethoxy-2-methyl-N-{(1R)-1-[3-(1H-pyrazol-3-yl)phenyl]ethyl}quinazolin-4-amine] | 1150 nM | 1010 nM | 588 nM | – | –
25 | C/C=C(\C)c1cccc([C@@H](C)Nc2nc(C)nc3cc(OC)c(OC)cc23)c1 [Example 76, N-[(1R)-1-{3-[(2E)-but-2-en-2-yl]phenyl}ethyl]-6,7-dimethoxy-2-methylquinazolin-4-amine] | 1190 nM | 952 nM | 471 nM | – | –
26 | CCCOc1ccc(Cl)cc1-c1cccc([C@@H](C)Nc2nc(C)nc3cc(OC)c(OC)cc23)c1 [Example 77, N-[(1R)-1-(5′-chloro-2′-propoxybiphenyl-3-yl)ethyl]-6,7-dimethoxy-2-methylquinazolin-4-amine] | 9630 nM | 19900 nM | 7860 nM | – | –
27 | COc1cc2nc(C)nc(N[C@H](C)c3cccc(/C=C/Cc4ccccc4)c3)c2cc1OC [Example 78, 6,7-dimethoxy-2-methyl-N-[(1R)-1-{3-[(1E)-3-phenylprop-1-en-1-yl]phenyl}ethyl]quinazolin-4-amine] | – | – | 8550 nM | 31% | 45%
28 | COc1cc2nc(C)nc(N[C@H](C)c3cccc(-c4ccc(N5CCOCC5)cc4)c3)c2cc1OC [Example 79, 6,7-dimethoxy-2-methyl-N-{(1R)-1-[4′-(morpholin-4-yl)biphenyl-3-yl]ethyl}quinazolin-4-amine] | 937 nM | 1650 nM | 1550 nM | – | –
29 | COc1cc2nc(C)nc(N[C@H](C)c3cccc(-c4cccc(N5CCOCC5)c4)c3)c2cc1OC [Example 80, 6,7-dimethoxy-2-methyl-N-{(1R)-1-[3′-(morpholin-4-yl)biphenyl-3-yl]ethyl}quinazolin-4-amine] | 711 nM | 1120 nM | 721 nM | – | –
